Source: ChEMBL document CHEMBL1155368, “Derivatives of aryl amines containing the cytotoxic 1,4-dioxo-2-butenyl pharmacophore” (Bioorg Med Chem Lett, 2010)

Experiments:
Mus musculus [1] = assay: Toxicity in mouse assessed as mortality at 30 to 300 mg/kg, ip after 0.5 to 4 hrs; type: organism-based; design: dose 30-300 mg/kg, route intraperitoneal; conditions: in vivo
L1210 = assay: Cytotoxicity against mouse L1210 cells; type: functional, cell-based
[2] = Cytotoxicity against human Molt4/C8 cells; type: functional, cell-based; conditions: MOLT-4
CCRF-CEM = assay: Cytotoxicity against human CEM cells; type: functional, cell-based
Mus musculus [3] = assay: Toxicity in mouse assessed as mortality at 300 mg/kg, ip after 4 hrs; type: organism-based; design: dose 300 mg/kg, route intraperitoneal; conditions: in vivo
Mus musculus [4] = assay: Toxicity in mouse assessed as mortality at 100 mg/kg, ip after 4 hrs; type: organism-based; design: dose 100 mg/kg, route intraperitoneal; conditions: in vivo
[5] = target: T1, Glycylpeptide N-tetradecanoyltransferase 1 (Homo sapiens, UniProt P30419); assay: Inhibition of human NMT expressed in Escherichia coli DH5alpha cells
T1 sequence (P30419 whole entry): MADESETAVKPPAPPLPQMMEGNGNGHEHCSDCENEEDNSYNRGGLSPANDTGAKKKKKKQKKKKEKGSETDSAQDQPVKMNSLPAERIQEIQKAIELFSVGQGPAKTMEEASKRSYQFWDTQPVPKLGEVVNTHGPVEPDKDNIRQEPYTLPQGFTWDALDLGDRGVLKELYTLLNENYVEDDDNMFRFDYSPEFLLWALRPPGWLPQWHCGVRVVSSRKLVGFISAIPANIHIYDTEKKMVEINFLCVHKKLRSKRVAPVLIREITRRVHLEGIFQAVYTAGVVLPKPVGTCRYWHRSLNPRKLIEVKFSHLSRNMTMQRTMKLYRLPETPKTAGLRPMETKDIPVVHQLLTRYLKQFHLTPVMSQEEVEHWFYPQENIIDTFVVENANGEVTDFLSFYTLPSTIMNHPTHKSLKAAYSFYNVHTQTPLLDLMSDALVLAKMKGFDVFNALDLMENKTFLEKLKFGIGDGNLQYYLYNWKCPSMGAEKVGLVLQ

Mus musculus [6] = assay: Toxicity in mouse assessed as mortality at 30 mg/kg, ip after 4 hrs; type: organism-based; design: dose 30 mg/kg, route intraperitoneal; conditions: in vivo

SMILES | Activity (Mus musculus [1]) | IC50 (L1210) [µM] | IC50 [2] [µM] | IC50 (CCRF-CEM) [µM] | Activity (Mus musculus [3]) | Activity (Mus musculus [4]) | IC50 [5] [µM] | Activity (Mus musculus [6])
COC(=O)/C=C/C(=O)Nc1ccc(Cl)cc1 | Non-toxic | 7.5 | 8.2 | 9.6 |  |  |  | 
Cc1cccc(C)c1NC(=O)/C=C/C(=O)O | Non-toxic | > 500 | > 500 | > 500 |  |  |  | 
O=C1CCC(=O)N1c1ccccc1 | Non-toxic | > 500 | > 500 | > 500 |  |  |  | 
COc1ccc(NC(=O)/C=C/C(=O)O)cc1 | Non-toxic | > 500 | > 500 | > 500 |  |  |  | 
Cc1ccc(N2C(=O)CCC2=O)cc1 |  | 7.8 | 43 | 42 | Toxic | Toxic |  | 
COC(=O)/C=C\C(=O)Nc1ccc([N+](=O)[O-])cc1 |  | 208 | 210 | 190 | Toxic |  |  | 
O=C1C=C/C(=N\c2ccccc2)O1 |  | > 500 | > 500 | > 500 |  |  |  | 
COC(=O)/C=C/C(=O)Nc1ccc([N+](=O)[O-])cc1 | Non-toxic | 6.2 | 7.3 | 11 |  |  |  | 
COc1ccc(/N=C2\C=CC(=O)O2)cc1 |  | > 500 | > 500 | > 500 |  |  |  | 
Cc1ccc(NC(=O)/C=C/C(=O)O)cc1C | Non-toxic | 466 | > 500 | > 500 |  |  |  | 
O=C(O)/C=C/C(=O)Nc1ccccc1 | Non-toxic | > 500 | > 500 | > 500 |  |  |  | 
Cc1ccc(/N=C2\C=CC(=O)O2)cc1 |  | 271 | 301 | 357 |  |  |  | 
COC(=O)/C=C/C(=O)Nc1ccc(OC)cc1 | Non-toxic | 18 | 10 | 37 |  |  |  | 
CC(=O)c1ccc(N2C(=O)CCC2=O)cc1 |  | 31 | 93 | 215 | Toxic | Toxic |  | 
Cc1ccc(/N=C2\C=CC(=O)O2)cc1C |  | 69 | 161 | 195 |  |  |  | 
COC(=O)/C=C\C(=O)Nc1c(C)cccc1C |  | 184 | 192 | 183 |  |  |  | 
COC(=O)/C=C\C(=O)Nc1ccc(C(C)=O)cc1 |  | 184 | 50 | 44 | Toxic |  |  | 
COC(=O)CCC(=O)Nc1ccccc1 |  | > 500 | > 500 | > 500 |  |  |  | 
CC(=O)c1ccc(NC(=O)/C=C/C(=O)O)cc1 | Non-toxic | > 500 | > 500 | > 500 |  |  |  | 
O=C(O)/C=C/C(=O)Nc1ccc(Cl)c(Cl)c1 | Non-toxic | 314 | 214 | 209 |  |  |  | 
COC(=O)/C=C/C(=O)Nc1ccc(Cl)c(Cl)c1 | Non-toxic | 0.37 | 2.4 | 4.8 |  |  |  | 
O=C(O)/C=C/C(=O)Nc1ccc([N+](=O)[O-])cc1 | Non-toxic | > 500 | 236 | > 500 |  |  |  | 

SMILES | Activity (Mus musculus [1]) | IC50 (L1210) [µM] | IC50 [2] [µM] | IC50 (CCRF-CEM) [µM] | Activity (Mus musculus [3]) | Activity (Mus musculus [4]) | IC50 [5] [µM] | Activity (Mus musculus [6])
O=C1C=C/C(=N\c2ccc([N+](=O)[O-])cc2)O1 |  | 69 | 60 | 161 | Toxic |  |  | 
O=C(O)CCC(=O)Nc1ccccc1 |  | > 500 | > 500 | > 500 |  |  |  | 
CC(=O)c1ccc(/N=C2\C=CC(=O)O2)cc1 |  | 219 | 214 | 205 |  |  |  | 
COC(=O)/C=C\C(=O)Nc1ccc(Cl)c(Cl)c1 |  | 39 | 41 | 55 | Toxic |  |  | 
COC(=O)/C=C\C(=O)Nc1ccccc1 |  | > 500 | > 500 | > 500 |  |  |  | 
O=C1CCC(=O)N1c1ccc([N+](=O)[O-])cc1 |  | 41 | 210 | 202 | Toxic | Toxic |  | 
COC(=O)/C=C/C(=O)Nc1ccccc1 | Non-toxic | 40 | 42 | 40 |  |  |  | 
O=C1C=C/C(=N\c2ccc(Cl)c(Cl)c2)O1 |  | 47 | 58 | 54 | Toxic |  |  | 
COC(=O)/C=C/C(=O)Nc1ccc(C)c(C)c1 | Non-toxic | 2.2 | 4.6 | 7.6 |  |  | 2330 | 
O=C1C=CC(=O)N1c1ccccc1 |  | 164 | 207 | 217 | Toxic | Toxic |  | Toxic
COc1ccc(N2C(=O)CCC2=O)cc1 |  | 225 | 281 | 295 | Toxic | Toxic |  | 
Cc1ccc(NC(=O)/C=C/C(=O)O)cc1 | Non-toxic | > 500 | > 500 | > 500 |  |  |  | 
COC(=O)/C=C\C(=O)Nc1ccc(C)c(C)c1 |  | 202 | 188 | 228 |  |  |  | 
COC(=O)/C=C\C(=O)Nc1ccc(C)cc1 |  | 47 | 37 | 36 |  |  | > 10000 | 
N[C@@H](Cc1ccc(N(CCCl)CCCl)cc1)C(=O)O [MELPHALAN] |  | 2.1 | 3.2 | 2.5 |  |  |  | 
COC(=O)/C=C/C(=O)Nc1c(C)cccc1C | Non-toxic | 34 | 26 | 31 |  |  |  | 
O=C(O)/C=C/C(=O)Nc1ccc(Cl)cc1 | Non-toxic | > 500 | > 500 | > 500 |  |  |  | 
COC(=O)/C=C\C(=O)Nc1ccc(Cl)cc1 | Non-toxic | 78 | 41 | 95 |  |  |  | 
COC(=O)/C=C/C(=O)Nc1ccc(C(C)=O)cc1 |  | 17 | 35 | 32 |  |  |  | 
COC(=O)/C=C/C(=O)Nc1ccc(C)cc1 |  | 9.3 | 21 | 15 |  | Toxic |  | 
O=C1CCC(=O)N1c1ccc(Cl)cc1 |  | 194 | 218 | 231 | Toxic | Toxic |  | 
O=C1C=C/C(=N\c2ccc(Cl)cc2)O1 |  | 59 | 30 | 182 |  |  |  | 
